The source of these data is PubChem BioAssay AID334 (DTP/NCI, 2004).

For the experiment, the system named is CD2F1 mice, intracerebral P388 leukemia, median survival T/C%. In words: NCI In Vivo Anticancer Drug Screen. Data for tumor model P388 Leukemia (intracerebral) in CD2F1 (CDF1) mice. The settings on record: endpoint: median survival time, higher = longer survival. Here is the method: The antitumor activity of compounds was measured in mice bearing transplantable tumors. Survival or tumor size were measured and the results are expressed as the measurement made in the treated group (T) divided by the measurement made in the vehicle treated control group (C). The tumor model used in this assay is P388 Leukemia (intracerebral) in CD2F1 (CDF1) mice

Setting [1] is: dose: 4.0 mg/kg/injection, schedule: Q01DX009 (ip), vehicle: saline.

Where “and” joins values, the source holds several entries; their conditions need not be identical. Identical values can stand only once. Toxic doses and inconclusive results are not listed.

Regarding `NC(C/[N+]([O-])=N/O)C(=O)O` (stereo not drawn), the T/C is, setting by setting: (dose: 7.02 mg/kg/injection, schedule: Q01DX009 (ip), vehicle: saline with Tween-80) 90 % of control; (dose: 7.02 mg/kg/injection, schedule: Q01DX009 (ip), vehicle: saline) 110 % of control; (dose: 14.06 mg/kg/injection, schedule: Q01DX009 (ip), vehicle: saline with Tween-80) 98 % of control; (dose: 14.06 mg/kg/injection, schedule: Q01DX009 (ip), vehicle: saline) 99 % of control; (dose: 28.12 mg/kg/injection, schedule: Q01DX009 (ip), vehicle: saline with Tween-80) 95 % of control; (dose: 28.12 mg/kg/injection, schedule: Q01DX009 (ip), vehicle: saline) 108 % of control. Further, the T/C runs as follows: (dose: 56.25 mg/kg/injection, schedule: Q01DX009 (ip), vehicle: saline with Tween-80) 106 % of control; (dose: 56.25 mg/kg/injection, schedule: Q01DX009 (ip), vehicle: saline) 108 % of control and 112 % of control; (dose: 112.5 mg/kg/injection, schedule: Q01DX009 (ip), vehicle: saline with Tween-80) 96 % of control.
For `O=NN(CCCl)C(=O)NCCCl`, the T/C was 160 % of control (dose: 8.0 mg/kg/injection, schedule: Q01DX005 (iv), vehicle: saline + alcohol); 202 % of control (dose: 30.0 mg/kg/injection, schedule: Q01DX001 (ip), vehicle: saline + alcohol); 202 % of control (dose: 40.0 mg/kg/injection, schedule: Q01DX001 (ip), vehicle: saline + alcohol).
Take `COc1ccc2cc1Oc1ccc(cc1)C[C@H]1c3cc(c(OC)cc3CCN1C)Oc1c(OC)c(OC)cc3c1[C@H](C2)N(C)CC3`: the T/C (dose: 50.0 mg/kg/injection, schedule: Q01DX005 (ip), vehicle: Klucel (hydroxypropylcellulose) (HPC)) was 105 % of control and 106 % of control; the T/C (dose: 100.0 mg/kg/injection, schedule: Q01DX005 (ip), vehicle: Klucel (hydroxypropylcellulose) (HPC)) is 102 % of control and 105 % of control; the T/C (dose: 200.0 mg/kg/injection, schedule: Q01DX005 (ip), vehicle: Klucel (hydroxypropylcellulose) (HPC)) was 99 % of control and 108 % of control; the T/C (dose: 400.0 mg/kg/injection, schedule: Q01DX005 (ip), vehicle: Klucel (hydroxypropylcellulose) (HPC)) is 97 % of control and 104 % of control.
Turning to `N=C(N)SCc1c2ccccc2c(CSC(=N)N)c2ccccc12`, the T/C is 93 % of control and 96 % of control (dose: 2.5 mg/kg/injection, schedule: Q01DX005 (ip), vehicle: Klucel (hydroxypropylcellulose) (HPC)); 97 % of control and 104 % of control (dose: 5.0 mg/kg/injection, schedule: Q01DX005 (ip), vehicle: Klucel (hydroxypropylcellulose) (HPC)); 97 % of control and 101 % of control (dose: 10.0 mg/kg/injection, schedule: Q01DX005 (ip), vehicle: Klucel (hydroxypropylcellulose) (HPC)); 96 % of control and 104 % of control (dose: 20.0 mg/kg/injection, schedule: Q01DX005 (ip), vehicle: Klucel (hydroxypropylcellulose) (HPC)).
On to `CC(=O)N[C@@H](Cc1ccc(N(CCCl)CCCl)cc1)C(=O)ON1C(=O)CCC1=O`, for which the T/C is, setting by setting: (dose: 1.45 mg/kg/injection, schedule: Q03HX008 (ip), vehicle: saline) 105 % of control; (dose: 2.9 mg/kg/injection, schedule: Q03HX008 (ip), vehicle: saline) 105 % of control; (dose: 5.8 mg/kg/injection, schedule: Q03HX008 (ip), vehicle: saline) 115 % of control.
On to `CC1(C)N=C(N)N=C(N)N1c1ccc(OCCCNC(=O)Nc2cccc(S(=O)(=O)F)c2)c(Cl)c1`, for which the T/C by setting is: (dose: 25.0 mg/kg/injection, schedule: Q01DX009 (ip), vehicle: saline) 105 % of control; (dose: 50.0 mg/kg/injection, schedule: Q01DX009 (ip), vehicle: saline) 111 % of control; (dose: 100.0 mg/kg/injection, schedule: Q01DX009 (ip), vehicle: saline) 100 % of control.
For `CC1(C)N=C(N)N=C(N)N1c1ccc(CNC(=O)Nc2cccc(S(=O)(=O)F)c2)cc1`, the T/C reads like this: (dose: 150.0 mg/kg/injection, schedule: Q04DX003 (ip), vehicle: saline) 122 % of control; (dose: 225.0 mg/kg/injection, schedule: Q04DX003 (ip), vehicle: saline) 116 % of control.
With `CC[C@H]1CN2CCc3cc(OC)c(OC)cc3[C@@H]2C[C@@H]1C[C@H]1NCCc2cc(OC)c(OC)cc21`, the T/C reads like this: (dose: 2.0 mg/kg/injection, schedule: Q01DX005 (ip), vehicle: Klucel (hydroxypropylcellulose) (HPC)) 113 % of control and 99 % of control; (dose: 4.0 mg/kg/injection, schedule: Q01DX005 (ip), vehicle: Klucel (hydroxypropylcellulose) (HPC)) 94 % of control and 100 % of control; (dose: 8.0 mg/kg/injection, schedule: Q01DX005 (ip), vehicle: Klucel (hydroxypropylcellulose) (HPC)) 119 % of control and 100 % of control.
For `COc1cc([C@@H]2c3cc4c(cc3[C@@H](OC3OC5CO[C@@H](c6cccs6)OC5C(O)C3O)[C@H]3COC(=O)[C@H]23)OCO4)cc(OC)c1O` (stereo partly drawn), the T/C by setting is: (dose: 0.25 mg/kg/injection, schedule: Q01DX009 (ip), vehicle: saline) 108 % of control; (dose: 0.5 mg/kg/injection, schedule: Q01DX009 (ip), vehicle: saline) 116 % of control; (dose: 2.0 mg/kg/injection, schedule: Q01DX009 (ip), vehicle: saline) 152 % of control; under setting [1], 119 % of control.
`CC(C)=CCC1=C(O)c2ccccc2C(=O)C1=O`: the T/C runs as follows: (dose: 32.0 mg/kg/injection, schedule: Q01DX005 (ip), vehicle: Klucel (hydroxypropylcellulose) (HPC)) 104 % of control; (dose: 64.0 mg/kg/injection, schedule: Q01DX005 (ip), vehicle: Klucel (hydroxypropylcellulose) (HPC)) 104 % of control; (dose: 128.0 mg/kg/injection, schedule: Q01DX005 (ip), vehicle: Klucel (hydroxypropylcellulose) (HPC)) 95 % of control; (dose: 256.0 mg/kg/injection, schedule: Q01DX005 (ip), vehicle: Klucel (hydroxypropylcellulose) (HPC)) 92 % of control.
`CC1(C)N=C(N)N=C(N)N1c1ccc(OCc2ccc(C(=O)Nc3cccc(S(=O)(=O)F)c3)cc2)c(Cl)c1`: the T/C was 100 % of control (dose: 50.0 mg/kg/injection, schedule: Q04DX003 (ip), vehicle: saline); 94 % of control (dose: 100.0 mg/kg/injection, schedule: Q04DX003 (ip), vehicle: saline); 105 % of control (dose: 200.0 mg/kg/injection, schedule: Q04DX003 (ip), vehicle: saline); 88 % of control (dose: 400.0 mg/kg/injection, schedule: Q04DX003 (ip), vehicle: saline).
For `Nc1nc(F)nc2c1ncn2C1OC(COP(=O)(O)O)C(O)C1O` (stereo not drawn), the T/C was 102 % of control (dose: 60.0 mg/kg/injection, schedule: Q01DX009 (ip), vehicle: saline); 111 % of control (dose: 90.0 mg/kg/injection, schedule: Q01DX009 (ip), vehicle: saline); 119 % of control (dose: 134.0 mg/kg/injection, schedule: Q01DX009 (ip), vehicle: saline); 205 % of control (dose: 200.0 mg/kg/injection, schedule: Q01DX009 (ip), vehicle: saline).
On to `CC(=O)N(C)c1ccc(Nc2cc(C)[nH]c3ccc4ncnc4c23)cc1`, for which the T/C is 107 % of control (dose: 10.0 mg/kg/injection, schedule: Q01DX005 (ip), vehicle: saline); 106 % of control (dose: 20.0 mg/kg/injection, schedule: Q01DX005 (ip), vehicle: saline); 104 % of control (dose: 40.0 mg/kg/injection, schedule: Q01DX005 (ip), vehicle: saline).
In the case of `O=C1c2ccccc2C(=O)c2c(NCCNCCO)ccc(NCCNCCO)c21`, the T/C is 112 % of control (dose: 4.0 mg/kg/injection, schedule: Q01DX005 (ip), vehicle: saline with Tween-80); 109 % of control (dose: 4.0 mg/kg/injection, schedule: Q01DX009 (ip), vehicle: saline with Tween-80); 101 % of control and 105 % of control under setting [1]; 104 % of control (dose: 8.0 mg/kg/injection, schedule: Q01DX005 (ip), vehicle: saline with Tween-80); 118 % of control and 121 % of control (dose: 8.0 mg/kg/injection, schedule: Q01DX009 (ip), vehicle: saline with Tween-80); 91 % of control and 111 % of control (dose: 8.0 mg/kg/injection, schedule: Q01DX009 (ip), vehicle: saline). For the same compound, the T/C is, setting by setting: (dose: 16.0 mg/kg/injection, schedule: Q01DX005 (ip), vehicle: saline with Tween-80) 114 % of control; (dose: 16.0 mg/kg/injection, schedule: Q01DX009 (ip), vehicle: saline with Tween-80) 119 % of control and 108 % of control; (dose: 16.0 mg/kg/injection, schedule: Q01DX009 (ip), vehicle: saline) 120 % of control and 112 % of control; (dose: 32.0 mg/kg/injection, schedule: Q01DX005 (ip), vehicle: saline with Tween-80) 96 % of control; (dose: 32.0 mg/kg/injection, schedule: Q01DX009 (ip), vehicle: saline with Tween-80) 87 % of control and 101 % of control; (dose: 32.0 mg/kg/injection, schedule: Q01DX009 (ip), vehicle: saline) 90 % of control. The T/C (dose: 64.0 mg/kg/injection, schedule: Q01DX009 (ip), vehicle: saline with Tween-80) is 98 % of control.
